Test results taken from publication PMC11832467, “Novel mitochondrial-targeted alkyl chains act as fungal specific inhibitors of C. neoformans” (Frontiers in Microbiology, 2025).
Read-outs that look alike come from different tables or passages of the source.

Experiments:
[1] = molecular target: T1, C. albicans Aox2 (rAox2) (Candida albicans, UniProt Q9UV71); assay: NADH oxidation at […] nm, E. coli membranes; assay type: biochemical
T1 sequence (Q9UV71 1-365): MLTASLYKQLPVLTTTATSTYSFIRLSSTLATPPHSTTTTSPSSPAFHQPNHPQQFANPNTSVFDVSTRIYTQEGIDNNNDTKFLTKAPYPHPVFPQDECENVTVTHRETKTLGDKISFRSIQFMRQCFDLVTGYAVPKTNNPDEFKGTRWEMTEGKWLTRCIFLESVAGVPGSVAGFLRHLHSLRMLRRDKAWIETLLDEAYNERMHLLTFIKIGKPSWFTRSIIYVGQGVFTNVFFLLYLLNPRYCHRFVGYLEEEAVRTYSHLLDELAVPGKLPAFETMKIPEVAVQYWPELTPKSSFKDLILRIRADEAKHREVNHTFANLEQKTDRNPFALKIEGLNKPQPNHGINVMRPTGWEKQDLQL

[2] = molecular target: T2, cytochrome bc1 complex (Candida albicans, UniProt A0A1D8PJX3+P0C8L0); assay: cytochrome bc1 activity, dose response (assay not described); assay type: cell-based
T2 construct: gene COB; native multi-subunit complex III; preparation and assay not given; with Cytochrome c1, heme protein, mitochondrial
T2 sequence (P0C8L0 1-387): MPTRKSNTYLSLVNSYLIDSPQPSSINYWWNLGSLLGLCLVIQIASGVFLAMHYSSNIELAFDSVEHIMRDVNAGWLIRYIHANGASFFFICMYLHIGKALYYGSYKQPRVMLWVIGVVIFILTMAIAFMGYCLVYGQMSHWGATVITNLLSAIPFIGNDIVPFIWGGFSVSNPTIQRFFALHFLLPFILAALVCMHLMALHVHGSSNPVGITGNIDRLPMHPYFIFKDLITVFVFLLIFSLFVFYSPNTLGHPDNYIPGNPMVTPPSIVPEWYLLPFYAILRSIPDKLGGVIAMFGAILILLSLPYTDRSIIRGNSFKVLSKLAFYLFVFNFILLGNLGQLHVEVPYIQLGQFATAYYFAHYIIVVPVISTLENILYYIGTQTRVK
T2 sequence (A0A1D8PJX3 30-213): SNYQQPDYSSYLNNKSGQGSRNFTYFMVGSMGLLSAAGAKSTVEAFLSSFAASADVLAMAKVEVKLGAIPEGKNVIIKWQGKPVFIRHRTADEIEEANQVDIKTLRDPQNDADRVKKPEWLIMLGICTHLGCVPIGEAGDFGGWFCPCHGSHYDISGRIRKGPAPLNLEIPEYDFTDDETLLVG
T2 sequence (A0A1D8PHA3 43-288 partner): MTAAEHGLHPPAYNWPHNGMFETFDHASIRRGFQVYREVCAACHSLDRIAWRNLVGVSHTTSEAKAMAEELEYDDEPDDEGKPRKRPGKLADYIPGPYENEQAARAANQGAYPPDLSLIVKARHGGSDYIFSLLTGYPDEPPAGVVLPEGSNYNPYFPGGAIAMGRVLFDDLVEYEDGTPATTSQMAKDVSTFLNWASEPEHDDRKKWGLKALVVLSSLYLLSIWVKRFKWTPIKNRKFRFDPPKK
Text: cytochrome bc1 activity, dose response (assay not described) on cytochrome bc1 complex

| SMILES | IC50 ([1]; NADH, 65 mM MOPS pH 7.5, 1 mM KCN, 10 mM GMP, 10 min preincubation) [µM] | IC50 [2] [µM] | IC50 [1] [µM] |
| --- | --- | --- | --- |
| Cc1c(Br)c(O)c(CCCCCCCCCCCC[P+](c2ccccc2)(c2ccccc2)c2ccccc2)c(O)c1C=O [ALTOX094, (12-(3-Bromo-5-formyl-2,6-dihydroxy-4-methylphenyl)dodecyl)triphenylphosphonium bromide] | 15 ± 1 | 9.1 ± 1.2 |  |
| Cc1c(Br)c(O)c(CCCCCCCC[P+](c2ccccc2)(c2ccccc2)c2ccccc2)c(O)c1C=O [ALTOX102, (8-(3-Bromo-5-formyl-2,6-dihydroxy-4-methylphenyl)octyl)triphenylphosphonium bromide] |  | 5.8 ± 1.4 | 11.1 ± 1 |
| CC(C)=CCC/C(C)=C/Cc1c(O)c(Cl)c(C)c(C=O)c1O [Colletochlorin B] |  | 1.1 ± 0.1 | 0.0073 ± 0.0024 |
| CC(C)=CCC/C(C)=C/Cc1c(O)c(Br)c(C)c(C=O)c1O [ISSF31, (E)-3-Bromo-5-(3,7-dimethylocta-2,6-dien-1-yl)-4,6-dihydroxy-2-methylbenzaldehyde] |  | 1.2 ± 0.6 | 0.0211 ± 0.008 |
